Reference: patent publication US20090176714A1, “METHOD OF REDUCING THE EFFECTS OF ABeta AND COMPOSITIONS THEREFORE” (priority 2004, published 2009)

Columns and labels:
[1] = tested on: hippocampal slice cultures; test: Aβ-induced cell death (EthD-1/calcein AM, % Death) in organotypic hippocampal slice cultures; assay type: cell-based, mouse
Experimental: Pups from C57B6/SJL mice were anaesthetized and decapitated at postnatal day 15. The brain was removed and placed in ice-cold dissecting medium (50% Minimum Essential Medium (Invitrogen, Carlsbad, Calif.), 50% Hank's Balanced Salt Solution (Invitrogen), 25 mM HEPES, and 36 mM glucose). Both hippocampi were dissected under a dissecting microscope and cut at 400 μm on a McIlwain tissue chopper. Slices were separated and placed on filter inserts with a 30 mm diameter and a 0.4 μm filter pore size (Millipore, Billerica, Mass.) held in 6-well culture plates. For the first 3 days, slices were kept in Neurobasal media with B-27 supplement, 1 mM glutamine, and 1% penicillin/streptomycin (Invitrogen). Subsequently, the media was changed every 3 days using media without antibiotics. Organotypic cultures were maintained in a humidified incubator at 37° C. in 5% O2 and 5% CO2 for 14 to 21 days.
Cell death and viability was determined on live slices using the fluorescent probes from Molecular Probes' Live/Dead Kit. After a 40 minute incubation in calcein AM (1:400) and ethidium homodimer (1:1000) in phosphate buffered saline, slices were visualized at 200× magnification with an inverted Nikon Diaphot 200 microscope using the Bio-Rad MRC-1024 Laser Scanning Confocal system (Hercules, Calif.). Random images of the neuronal fields were captured at the emission spectrum of each probe, and Scion Image software (Frederick, Md.) was used to quantify the number of live and dead cells. At least three areas including a neuronal field were imaged and used to determine the percent death for each slice. The percent death was calculated as the number of EthD-1 positive cells divided by the total number of EthD-1 and calcein AM positive cells.
β-amyloid1-42 and reverse Aβ (Aβ42-1) were obtained from BACHEM (Torrance, Calif.). These polypeptides were dissolved in 0.1% NH3OH at 222 μM. For treatments, Aβ was aggregated at 50 μM in Neurobasal media with B-27 supplement and 1 mM glutamine at 37° C. for 24 hours. Then, the slice culture media was removed, and the slices were treated with 1 mL of 25 μM or 50 μM Aβ, reverse Aβ, or vehicle for 24 hours. Human TTR (Calbiochem) or IGF-2 (Peprotech, Rocky Hill, N.J.) was added to slices together with the Aβ treatment at final concentrations of 3 μM (TTR) or 500 nM (IGF-2). sAPPα was prepared as described previously (Mattson et al., Neuron, 10:243-254 (1993)).
Unless otherwise stated, all sAPPα treatments were performed at 1 nM 48 hours prior to the addition of Aβ. Antibodies against TTR (C-20) or IGF-2 (F-20; 4 μg/mL; Santa Cruz) or sAPPα (6E10; 10 μg/mL; Chemicon) were added to slices together with the sAPPα treatment. Goat IgG (4 μg/mL; Santa Cruz) or mouse IgG1 (10 μg/mL; Chemicon) was added as a control. The 10 amino acid fragment of the carboxyl-terminal region of sAPPα (592-601 of APP695; SEVKMDAEFR; SEQ ID NO:1; Sigma) was added according to the same protocol for sAPPα.
SiRNA's were created based on the mouse mRNA sequences using the Ambion Silencer siRNA Construction Kit (Austin, Tex.). Several siRNA's were created by in vitro transcription for each silenced gene. Transfection was performed for 4 hours at 37° C. prior to vehicle or sAPPα treatment using 25 nM siRNA combined with the polyamines in the Ambion siPORT Amine Transfection Agent. Transfections were performed in Neurobasal media with 1 mM glutamine (Invitrogen). The successful mRNA target sequences are as follows, TTR: 5′-[…]-3′ (SEQ ID NO:16) and 5′-[…]-3′ (SEQ ID NO:17); IGF-2: 5′-AA-GGGGATAGAGATGTGAGAG-3′ (SEQ ID NO:18) and 5′-AAATTATGTGGT-AATTCTGCA-3′ (SEQ ID NO:19); IGF-1R: 5′-[…]-3′ (SEQ ID NO:20) and 5′-[…]-3′ (SEQ ID NO:21).
β-amyloid1-42 and reverse Aβ (Aβ42-1) were obtained from BACHEM (Torrance, Calif.). These peptides were dissolved in 0.1% NH3OH at 222 μM. For treatments, Aβ was aggregated at 50 μM in Neurobasal media with B-27 supplement and 1 mM glutamine at 37° C. for 24 hours. […]

hippocampi of mice [2] = test: Stereotaxic injection into mouse hippocampus, TTR immunohistochemistry; assay type: in vivo
Experimental: (§1) Ten week old B6/SJL mice were stereotaxically injected on the right side of their hippocampi with sAPPα, a 10 amino acid fragment, or a scrambled 10-mer to an estimated 1 nM intra-hippocampal concentration. The contralateral sides were injected with artificial cerebrospinal fluid. Each injection consisted of […] of solution delivered over the period of 10 minutes. 48 hours after surgery, the mice were perfused with cold PBS, and their hippocampi were dissected and stored in stabilizing solution for subsequent RNA extraction.
48 hours after injection, mice were perfused with 4% PFA. The brains were harvested, hemisected, and fixed in 4% PFA overnight. They were then sunk in 30% sucrose for 24 hours, frozen, and sectioned. Sections were stained with cresyl violet for morphological verification of the injection site. Other sections were stained with goat anti-TTR, and biotinylated secondary antibody to show TTR protein expression, and ToPro3 as a nuclear marker. A control for nonspecific staining was done with goat IgG.
FIG. 13 is a set of stained micrographs showing stereotactic injection of sAPPα decamer into hippocampus induces expression of TTR in normal mouse brain. […] Injection of 1.5 μl of 15.3 nM solution prepared in artificial cerebral spinal fluid (CSF) was performed to approximate a final concentration of 1 nM in the hippocampus. The contralateral side was injected with only artificial CSF and used as control. […] The DNA binding dye ToPro3 was used to visualize nuclei (blue).

hippocampi of mice [3] = test: Stereotaxic injection into mouse hippocampus, quantitative real-time PCR; assay type: in vivo; conditions: estimated 1 nM intra-hippocampal concentration, 48 hours after injection
Experimental: as §1
RNA was extracted from hippocampal samples, DNase treated, and reverse transcribed. The cDNA was then used in quantitative real-time PCR performed with SYBR green on the Roche LightCycler system. Portions of each RNA sample were also used in no-RT traditional PCR reactions to validate the absence of DNA contamination.

[4] = 1 nM 48 hours prior to 25 μM Aβ (24 hours), FIG. 7

| Substance | Protection against Aβ-induced death (% Death) [1, 4] | Protection against Aβ-induced death (% Death) ([1]; 1 nM 48 h prior to 25 μM Aβ (24 h), FIG. 12A) | Protection against Aβ-induced death (% Death) ([1]; 1 nM 48 h prior to 25 μM Aβ (24 h), FIG. 12A, listed as tetramer) | Protection against Aβ-induced death (% Death) ([1]; 48 h prior to 25 μM Aβ (24 h), FIG. 12B, 1 nM, final concentration of 1 mM) | Protection against Aβ-induced death (% Death) ([1]; 48 h prior to 25 μM Aβ (24 h), FIG. 12B, 1 nM, final concentration of 1 mM, listed as tetramer) | TTR after injection into hippocampus (hippocampi of mice [2]; preliminary data) | Protection against Aβ-induced death (% Death, EthD-1 positive cells) ([1]; 1 nM added 48 hours prior to 25 μM or 50 μM Aβ (24 hours), FIG. 4A) | Expression of IGFBP2 in treated vs control side of hippocampus (hippocampi of mice [3]; FIG. 8) | Expression of IGF2 in treated vs control side of hippocampus (hippocampi of mice [3]; FIG. 10) | Amount of TTR in and around the CA1 hippocampal neurons, immunohistochemistry (hippocampi of mice [2]; 1.5 μl of 15.3 nM solution (about 1 nM final) vs contralateral CSF injected hippocampus, FIG. 13) | Levels of TTR within treated hippocampi (hippocampi of mice [2]; estimated 1 nM intra-hippocampal concentration, 48 hours after injection) | Percent death compared to treatment with vehicle ([1]; 25 μM Aβ, 24 hours) | Neurons that lost membrane integrity (EthD-1 positive) / percent death ([1]; 25 μM or 50 μM Aβ, 24 hours, compared to reverse Aβ) |
| --- | --- | --- | --- | --- | --- | --- | --- | --- | --- | --- | --- | --- | --- |
| DAEF [peptide of 4 residues within the 10 residue peptide (residues 597-600)] | sufficient to protect | protects against the Aβ-induced toxicity | completely protected | protects against the Aβ-induced toxicity | completely protected | increased TTR |  |  |  |  |  |  |  |
| SEVKMDAEFR | completely protected |  |  |  |  |  | mimics the protective effect of sAPPα | induced an increase in expression | induced an increase in expression | increased the amount of TTR | increased levels of TTR |  |  |
| β-amyloid1-42 [Aβ] |  |  |  |  |  |  |  |  |  |  |  | dramatic and significant increase | dramatic increase |
